A value given as a limit tells only on which side of the number the result lay.

For the test, the system named is HIV-1 IIIB. Nature of the test: HOS HIV-1 infectivity assay. The class given is cell-based. The conditions noted are these: Human immunodeficiency virus 1, IIIB; as determined by the infectivity assay; strain not stated in Table 2; read-out: Activity Level. The protocol: Compounds were profiled against two HIV-1 viruses, the M-tropic (CCR5 utilizing) Ba-L strain and the T-tropic (CXCR4 utilizing) IIIB strain. Both viruses were propagated in human peripheral blood lymphocytes. Compounds were tested for there ability to block infection of the HOS cell line (expressing hCXCR4/hCCR5/hCD4/pHIV-LTR-luciferase) by either HIV-1 Ba-L or HIV-1 IIIB. Compound cytotoxicity was also examined in the absence of virus addition.
HOS cells (expressing hCXCR4/hCCR5/hCD4/pHIV-LTR-luciferase) were harvested and diluted in Dulbeccos modified Eagles media supplemented with 2% FCS and non-essential amino acid to a concentration of 60,000 cells/ml. The cells were plated into 96-well plates (100 ul per well) and the plates were placed in a tissue culture incubator (37° C.; 5% CO2/95% air) for a period of 24 h.
Subsequently, 50 ul of the desired drug solution (4 times the final concentration) was added to each well and the plates were returned to the tissue culture incubator (37° C.; 5% CO2/95% air) for 1 h. Following this incubation 50 ul of diluted virus was added to each well (approximately 2 million RLU per well of virus). The plates were returned to the tissue culture incubator (37° C.; 5% CO2/95% air) and were incubated for a further 96 h.
Following this incubation the endpoint for the virally infected cultures was quantified following addition of Steady-Glo Luciferase assay system reagent (Promega, Madison, Wis.). Cell viability or non-infected cultures was measured using a CellTiter-Glo luminescent cell viability assay system (Promega, Madison, Wis.). All luminescent readouts are performed on a Topcount luminescence detector (Packard, Meridien, Conn.).
For `CN(Cc1nc2ccccc2n1CC1CCNC1)C1CCCc2cccnc21` (stereo not drawn) [Example 8c, N-Methyl-N-{[1-(3-pyrrolidinylmethyl)-1H-benzimidazol-2-yl]methyl}-5,6,7,8-tetrahydro-8-quinolinamine], the IC50 was < 100 nM.

`CN(Cc1nc2ccccc2n1CC1CNC1)C1CCCc2cccnc21` (stereo not drawn) [Example 10d, N-{[1-(3-Azetidinylmethyl)-1H-benzimidazol-2-yl]methyl}-N-methyl-5,6,7,8-tetrahydro-8-quinolinamine]: the IC50 is < 100 nM.

As for `CN(Cc1nc2ccccc2n1C1CCNCC1)C1CCCc2cccnc21` (stereo not drawn) [Example 11h, N-Methyl-N-{[1-(4-piperidinyl)-1H-benzimidazol-2-yl]methyl}-5,6,7,8-tetrahydro-8-quinolinamine], the IC50 was < 100 nM.

Take `CN(Cc1nc2ccccc2n1CCCN)C1CCCc2cccnc21` (stereo not drawn) [Example 15b, N-{[1-(3-Aminopropyl)-1H-benzimidazol-2-yl]methyl}-N-methyl-5,6,7,8-tetrahydro-8-quinolinamine]: the IC50 was < 100 nM.

As for `CN(Cc1nc2ccccc2n1CCC1CCCCN1)C1CCCc2cccnc21` (stereo not drawn) [Example 23d, N-Methyl-N-({1-[2-(2-piperidinyl)ethyl]-1H-benzimidazol-2-yl}methyl)-5,6,7,8-tetrahydro-8-quinolinamine], the IC50 was < 100 nM.

For the compound `CN(Cc1nc2ccccc2n1Cc1ccccn1)C1CCCc2cccnc21` (stereo not drawn) [Example 26, N-Methyl-N-{[1-(2-pyridinylmethyl)-1H-benzimidazol-2-yl]methyl}-5,6,7,8-tetrahydro-8-quinolinamine], the IC50 was in the range of 500 to 10000 nM.

Regarding `CN(Cc1nc2ccccc2n1Cc1ccncc1)C1CCCc2cccnc21` (stereo not drawn) [Example 27, N-Methyl-N-{[1-(4-pyridinylmethyl)-1H-benzimidazol-2-yl]methyl}-5,6,7,8-tetrahydro-8-quinolinamine], the IC50 fell in the range of 100 to 500 nM.

Regarding `CN(Cc1nc2ccccc2n1CC(=O)NCc1ccncc1)C1CCCc2cccnc21` (stereo not drawn) [Example 28, 2-(2-{[Methyl(5,6,7,8-tetrahydro-8-quinolinyl)amino]methyl}-1H-benzimidazol-1-yl)-N-(4-pyridinylmethyl)acetamide], the IC50 fell in the range of 100 to 500 nM.

`CN(Cc1nc2ccccc2n1CC(=O)NCc1cccnc1)C1CCCc2cccnc21` (stereo not drawn) [Example 29, 2-(2-{[Methyl(5,6,7,8-tetrahydro-8-quinolinyl)amino]methyl}-1H-benzimidazol-1-yl)-N-(3-pyridinylmethyl)acetamide]: the IC50 is < 100 nM.

Regarding `CN(Cc1nc2ccccc2n1CC(=O)NCCCN)C1CCCc2cccnc21` (stereo not drawn) [Example 30, N-(3-Aminopropyl)-2-(2-{[methyl(5,6,7,8-tetrahydro-8-quinolinyl)amino]methyl}-1H-benzimidazol-1-yl)acetamide], the IC50 was in the range of 100 to 500 nM.

`CN(Cc1nc2ccccc2n1CC(=O)NCCN)C1CCCc2cccnc21` (stereo not drawn) [Example 31, N-(2-Aminoethyl)-2-(2-{[methyl(5,6,7,8-tetrahydro-8-quinolinyl)amino]methyl}-1H-benzimidazol-1-yl)acetamide]: the IC50 was in the range of 100 to 500 nM.

As to `CN(Cc1nc2ccccc2n1CC(=O)N1CCNCC1)C1CCCc2cccnc21` (stereo not drawn) [Example 32, N-Methyl-N-({1-[2-oxo-2-(1-piperazinyl)ethyl]-1H-benzimidazol-2-yl}methyl)-5,6,7,8-tetrahydro-8-quinolinamine], the IC50 lay within 500 to 10000 nM.

With `CN(Cc1nc2ccccc2n1CC(=O)NCc1ccccn1)C1CCCc2cccnc21` (stereo not drawn) [Example 33, 2-(2-{[Methyl(5,6,7,8-tetrahydro-8-quinolinyl)amino]methyl}-1H-benzimidazol-1-yl)-N-(2-pyridinylmethyl)acetamide], the IC50 was in the range of 100 to 500 nM.

As to `CN(Cc1nc2ccccc2n1[C@H]1CC[C@H](N(C)C)CC1)C1CCCc2cccnc21` (stereo partly drawn) [Example 35, N-({1-[trans-4-(Dimethylamino)cyclohexyl]-1H-benzimidazol-2-yl}methyl)-N-methyl-5,6,7,8-tetrahydro-8-quinolinamine], the IC50 was 100 to 500 nM.

Consider `CN(Cc1nc2ccccc2n1CCc1cccnc1)C1CCCc2cccnc21` (stereo not drawn) [Example 36], for which the IC50 was in the range of 100 to 500 nM.

Consider `CN(Cc1nc2ccccc2n1CCc1ccccn1)C1CCCc2cccnc21` (stereo not drawn) [Example 37, N-methyl-N-([1-[2-(2-pyridinyl)ethyl]-1H-benzimidazol-2-yl]methyl)-5,6,7,8-tetrahydro-8-quinolinamine], for which the IC50 lay within 100 to 500 nM.

Consider `CN(C)CCCn1ccnc1CN(C)C1CCCc2cccnc21` (stereo not drawn) [Example 38, N-({1-[3-(Dimethylamino)propyl]-1H-imidazol-2-yl}methyl)-N-methyl-5,6,7,8-tetrahydro-8-quinolinamine], for which the IC50 is 500 to 10000 nM.

Turning to `CN(Cc1nc2ccccc2n1C[C@H]1CCCNC1)[C@H]1CCCc2cccnc21` [Example 39h, (8S)—N-Methyl-N-({1-[(3S)-3-piperidinylmethyl]-1H-benzimidazol-2-yl}methyl)-5,6,7,8-tetrahydro-8-quinolinamine], the IC50 was < 100 nM.

With `CN1CCC[C@H](Cn2c(CN(C)[C@H]3CCCc4cccnc43)nc3ccccc32)C1` [Example 39i, (8S)—N-Methyl-N-[(1-{[(3S)-1-methyl-3-piperidinyl]methyl}-1H-benzimidazol-2-yl)methyl]-5,6,7,8-tetrahydro-8-quinolinamine], the IC50 was < 100 nM.

Regarding `CN(Cc1nc2ccccc2n1C[C@H]1CCCN(Cc2ccccn2)C1)[C@H]1CCCc2cccnc21` [Example 40, (8S)—N-Methyl-N-[(1-{[(3S)-1-(2-pyridinylmethyl)-3-piperidinyl]methyl}-1H-benzimidazol-2-yl)methyl]-5,6,7,8-tetrahydro-8-quinolinamine], the IC50 was < 100 nM.

In the case of `CN(Cc1nc2ccccc2n1C[C@H]1CCCN(Cc2cccnc2)C1)[C@H]1CCCc2cccnc21` [Example 41, (8S)—N-Methyl-N-[(1-{[(3S)-1-(3-pyridinylmethyl)-3-piperidinyl]methyl}-1H-benzimidazol-2-yl)methyl]-5,6,7,8-tetrahydro-8-quinolinamine], the IC50 is < 100 nM.

Take `CN(Cc1nc2ccccc2n1C[C@H]1CCCN(Cc2ccncc2)C1)[C@H]1CCCc2cccnc21` [Example 42, (8S)—N-Methyl-N-[(1-{[(3S)-1-(4-pyridinylmethyl)-3-piperidinyl]methyl}-1H-benzimidazol-2-yl)methyl]-5,6,7,8-tetrahydro-8-quinolinamine]: the IC50 is < 100 nM.

As for `CN(Cc1nc2ccccc2n1C[C@H]1CCCN(Cc2ccccc2)C1)[C@H]1CCCc2cccnc21` [Example 43, (8S)—N-Methyl-N-[(1-{[(3S)-1-(phenylmethyl)-3-piperidinyl]methyl}-1H-benzimidazol-2-yl)methyl]-5,6,7,8-tetrahydro-8-quinolinamine], the IC50 is < 100 nM.

As for `CC(C)CN1CCC[C@H](Cn2c(CN(C)[C@H]3CCCc4cccnc43)nc3ccccc32)C1` [Example 44, (8S)—N-Methyl-N-[(1-{[(3S)-1-(2-methylpropyl)-3-piperidinyl]methyl}-1H-benzimidazol-2-yl)methyl]-5,6,7,8-tetrahydro-8-quinolinamine], the IC50 is < 100 nM.

As to `CN(Cc1nc2ccccc2n1C[C@H]1CCCN(Cc2ncc[nH]2)C1)[C@H]1CCCc2cccnc21` [Example 45, (8S)—N-[(1-{[(3S)-1-(1H-Imidazol-2-ylmethyl)-3-piperidinyl]methyl}-1H-benzimidazol-2-yl)methyl]-N-methyl-5,6,7,8-tetrahydro-8-quinolinamine], the IC50 is < 100 nM.

Consider `CN(Cc1nc2ccccc2n1C[C@H]1CCCN(CCO)C1)[C@H]1CCCc2cccnc21` [Example 46, 2-((3S)-3-{[2-({Methyl[(8S)-5,6,7,8-tetrahydro-8-quinolinyl]amino}methyl)-1H-benzimidazol-1-yl]methyl}-1-piperidinyl)ethanol], for which the IC50 is < 100 nM.

Take `CN(Cc1nc2ccccc2n1C[C@H]1CCCN(CCCO)C1)[C@H]1CCCc2cccnc21` [Example 47, 3-((3S)-3-{[2-({Methyl[(8S)-5,6,7,8-tetrahydro-8-quinolinyl]amino}methyl)-1H-benzimidazol-1-yl]methyl}1-piperidinyl)-1-propanol]: the IC50 was < 100 nM.

Turning to `CN(C)Cc1cccc(Cn2c(CN(C)C3CCCc4cccnc43)nc3ccccc32)c1` (stereo not drawn) [Example 48, N-{[1-({3-[(Dimethylamino)methyl]phenyl}methyl)-1H-benzimidazol-2-yl]methyl}-N-methyl-5,6,7,8-tetrahydro-8-quinolinamine], the IC50 was in the range of 100 to 500 nM.

On to `CN(C)CCCCCCn1c(CN(C)C2CCCc3cccnc32)nc2ccccc21` (stereo not drawn) [Example 49, N-({1-[6-(Dimethylamino)hexyl]-1H-benzimidazol-2-yl}methyl)-N-methyl-5,6,7,8-tetrahydro-8-quinolinamine], for which the IC50 is 100 to 500 nM.

`CN(C)Cc1ccccc1Cn1c(CN(C)C2CCCc3cccnc32)nc2ccccc21` (stereo not drawn) [Example 50, N-{[1-({2-[(Dimethylamino)methyl]phenyl}methyl)-1H-benzimidazol-2-yl]methyl}-N-methyl-5,6,7,8-tetrahydro-8-quinolinamine]: the IC50 lay in the range of 100 to 500 nM.

For the origin of these results see patent US20080096861A1, “Chemical Compounds” (SMITHKLINE BEECHAM CORPORATION, priority 2004, published 2008).
